The results in this text go back to US11702428B2, “Chemical compounds as inhibitors of interleukin-1 activity” (Genentech, Inc., priority 2017, dated 2023).

For one test, the system named is TNFα. As to the kind of experiment: LPS/ATP challenge model in C57BL/6 mice, TNFα in peritoneal lavage. The format is in vivo. To be noted: 3.5 hours post dose. As for the experimental part:
(§1) The purpose of this study was to determine the effects of Compounds 1 and 2 treatment on cytokine production after LPS/ATP injection in female C57BL/6 mice.
(§2) On Day −1 mice were weighed and assigned to groups per Table 2 (see below) in a balanced manner to achieve similar average weight across the groups at the start of the study.
(§3) All mice received a single dose of treatment or vehicle, at hour minus 1.
(§4) At hour 0, all mice received 1 μg of lipopolysaccharide, ultra pure (LPS, InvivoGen, San Diego, Calif.) in 0.5 ml PBS, intraperitoneally.
(§5) At hour 2 (two hours after LPS injection), all mice were injected intraperitoneally with 0.5 ml of 80 mM ATP disodium salt (Sigma, pH adjusted to 7.2 before injection).
(§6) At hour 2.5 (30 minutes after ATP injection and 3.5 hours after compound dosing), blood from all mice was collected via retro-orbital bleeding into K2 EDTA tubes and plasma was prepared and stored at […]. Samples were shipped to the customer or vendor of customers choosing within 7 days of completing the study.
(§7) Immediately after the collection of blood, each mouse was euthanized, the peritoneal cavity was lavaged with 3 ml of ice-cold PBS containing 25 U/ml heparin sodium salt, cocktail of protease inhibitors (Complete™ ULTRA Tablets, Sigma, Roche), and 10% FBS. Approximately 1 ml of the lavage was collected, spun down to remove cells and the supernatant stored at −80° C.
(§8) Compound powders were stored at 4° C. All compounds were prepared fresh. Compounds were weighed out and first ground with a mortar and pestle, then ground with a small amount of vehicle. The mortar was then repeatedly rinsed with vehicle to remove all material and achieve the correct concentration. The final solution was vortexed to create a homogeneous mixture
(§9) Mouse IL-1β and TNFα concentrations in peritoneal lavage samples were determined using Becton Dickinson (Franklin Lakes, N.J.) CBA analysis kit, according to manufacturer's protocol. A single analysis was performed on each sample.
(§10) Concentrations of cytokines were compared using Student t-test.

In a further test the test system is pro-caspase-1. As to the kind of experiment: Inhibition of Caspase1 activation in bone marrow derived macrophages (Western Blot). Type of test: cell-based, mouse. To be noted: 10 μM; BMDMs, LPS 100 ng/ml 3 hours, nigericin 10 μM 90 minutes.
In a further test the test system is IL-1β. As to the kind of experiment: LPS/ATP challenge model in C57BL/6 mice, IL-1β in peritoneal lavage. The format is in vivo. To be noted: 3.5 hours post dose. The procedure: as §1, §2, §3, §4, §5, §6, §7, §8, §9, §10

Molecules are shown by their SMILES. Entries after “also recorded” stand apart in the source; their conditions may differ.

In the case of `CS(=O)(=O)NC(=O)Nc1c2c(cc3c1CCC3)CCC2` [Compound 2, N-((1,2,3,5,6,7-hexahydro-s-indacen-4-yl)carbamoyl)methanesulfonamide], the figures for the “% Decrease of TNFα vs. Vehicle” value in the test on TNFα (single oral dose 0.25 mg/kg), in the test with TNFα (single oral dose 1 mg/kg) and in the test with TNFα (single oral dose 2.5 mg/kg) were −12.5%, −15.5% and −218%, respectively. Further, the “Mean (TNFα)” value stood at 384.7 pg/mL in the test on TNFα (single oral dose 0.25 mg/kg), 394.9 pg/mL in the test with TNFα (single oral dose 1 mg/kg) and 416.6 pg/mL with TNFα (single oral dose 2.5 mg/kg). Besides, the “activation of pro-caspase-1 (p45 and p10 bands, Western Blot)” value in the test on pro-caspase-1 is “blocked; also recorded: inhibition of activation”. Moreover, the figures for the “Mean (IL-1β)” value in the test on IL-1β (single oral dose 0.25 mg/kg), with IL-1β (single oral dose 1 mg/kg) and in the test on IL-1β (single oral dose 2.5 mg/kg) were 392.7 pg/mL, 12.9 pg/mL and 10.7 pg/mL, respectively. The “% Decrease of IL-1β vs. Vehicle” value in the test with IL-1β (single oral dose 0.25 mg/kg, 0.25 mg/kg) was determined as 71.0%; in the test with IL-1β (single oral dose 1 mg/kg, 1 mg/kg), 99.0%; in the test with IL-1β (single oral dose 2.5 mg/kg, 2.5 mg/kg), 99.2%.
